Reference: patent publication US6548053B1, “Control of intra-ocular pressure” (The University of Birmingham, priority 1999, dated 2003)

Legend:
Assay type in all cases: in vivo, human
healthy male volunteers = assay: Clinical study: intra-ocular pressure (Goldmann applanation tonometer) under oral carbenoxolone; conditions: for reduction in IOP during the day (08:00 to 20:00 hrs): baseline reduction 0.38±1.16; for reduction in IOP during the day (08:00 to 20:00 hrs), percent: baseline 2.51%; for IOP of one subject vs days 1 and 2 (FIG. 3): both eyes
Description: (§1) A clinical study was undertaken to assess the functional significance of 11β-HSD within the eye by oral administration of carbenoxolone, a known inhibitor of both 11β-HSD1 and 11β-HSD2. The study was undertaken on eight healthy male volunteers who were not on any systemic or topical medications and had no family history of glaucoma. Baseline intra-ocular pressure readings were measured using the same Goldmann applanation tonometer at 08:00, 12:00, 16:00 and 20:00 hours on two consecutive days. Systolic and diastolic blood pressures were also measured at each time point. Venous blood was analysed for serum electrolytes on day one and urine was collected for 24-hour urinary free cortisol and GC/MS for cortisol/cortisone ratios. The subjects then commenced a course of 100 mg carbenoxolone taken orally three times a day for seven consecutive days. The IOP measurements and blood pressure recordings were repeated at each time point on the third and seventh day of carbenoxolone ingestion (i.e. days five and nine of the study). Urea and electrolytes were also measured on these days and inhibition of 11β-HSD was confirmed by comparing the original urinary F/E ratio with that from urine aliquoted from a further 24-hour collection performed between days six and seven of ingestion. […] There was no difference between each eye of each subject. The IOP was lower on day seven of ingestion (11.50±2.08) than on day three (12.48±1.48) compared with the mean baseline values (p<0.0001 for both days), the difference between days three and seven being significant (p<0.001). There was also a small reduction in intra-ocular pressure during the course of the day, i.e. from 08:00 hrs to 20:00 hrs (baseline reduction of0.38±1.16 (2.51%), p=0.076).

11β-HSD = assay: Clinical study: urinary free cortisol and GC/MS urinary steroid ratios confirming inhibition of 11β-HSD
Description: as §1, with “In addition, there” for “There”, “a significant decrease in” for “no difference between each eye of each subject. The IOP was lower on day seven of ingestion (11.50±2.08) than on day three (12.48±1.48) compared with”, “tetrahydrocortisol (THF)+allo-THF/tetrahydrocortisone (THE) ratio (pre-THF+allo-THF/THE=0.92±0.23, per-THF+allo-THF/THE=0.7±0.19, p=0.0012). This reflects” for “mean baseline values (p<0.0001 for both days),”, “relative 11β-HSD1/HSD2 activities predominantly” for “difference between days three and seven being significant (p<0.001). There was also a small reduction”, “in” for “in intra-ocular pressure during”, “liver.” for “course of the day, i.e. from 08:00 hrs to 20:00 hrs (baseline reduction of0.38±1.16 (2.51%), p=0.076).”

[1] = Clinical study: systolic and diastolic blood pressure and serum electrolytes; conditions: throughout the study, 100 mg orally three times a day for seven days
Description: A clinical study was undertaken to assess the functional significance of 11β-HSD within the eye by oral administration of carbenoxolone, a known inhibitor of both 11β-HSD1 and 11β-HSD2. The study was undertaken on eight healthy male volunteers who were not on any systemic or topical medications and had no family history of glaucoma. Baseline intra-ocular pressure readings were measured using the same Goldmann applanation tonometer at 08:00, 12:00, 16:00 and 20:00 hours on two consecutive days. Systolic and diastolic blood pressures were also measured at each time point. Venous blood was analysed for serum electrolytes on day one and urine was collected for 24-hour urinary free cortisol and GC/MS for cortisol/cortisone ratios. The subjects then commenced a course of 100 mg carbenoxolone taken orally three times a day for seven consecutive days. The IOP measurements and blood pressure recordings were repeated at each time point on the third and seventh day of carbenoxolone ingestion (i.e. days five and nine of the study). Urea and electrolytes were also measured on these days and inhibition of 11β-HSD was confirmed by comparing the original urinary F/E ratio with that from urine aliquoted from a further 24-hour collection performed between days six and seven of ingestion.
There was no difference between each eye of each subject. […]

## CC1(C)[C@@H](OC(=O)CCC(=O)O)CC[C@]2(C)[C@H]3C(=O)C=C4[C@@H]5C[C@@](C)(C(=O)O)CC[C@]5(C)CC[C@@]4(C)[C@]3(C)CC[C@@H]12 [carbenoxolone]
Healthy male volunteers; day seven of ingestion, p=0.0006
  reduction in IOP during the day (08:00 to 20:00 hrs): 2.25±1.91
Healthy male volunteers; day seven of ingestion
  reduction in IOP during the day (08:00 to 20:00 hrs), percent: 17.31%
Healthy male volunteers; day three of ingestion, p=0.0058
  reduction in IOP during the day (08:00 to 20:00 hrs): 0.86±0.83
Healthy male volunteers; day three of ingestion
  reduction in IOP during the day (08:00 to 20:00 hrs), percent: 6.51%
Healthy male volunteers; eight subjects, 100 mg orally three times a day, pre-IOP 14.7±1.39
  per-IOP (mean IOP on ingesting carbenoxolone): 12.00±1.87
Healthy male volunteers; eight subjects, day seven of ingestion (study day 9), p<0.0001 vs mean baseline
  IOP on day seven of ingestion: 11.50±2.08
Healthy male volunteers; eight subjects, day three of ingestion (study day 5), p<0.0001 vs mean baseline
  IOP on day three of ingestion: 12.48±1.48
Healthy male volunteers; eight subjects, drop significant in seven individuals (<0.01)
  subjects showing a decrease in IOP: All eight subjects showed a decrease in IOP
Healthy male volunteers; mean of eight subjects, 100 mg orally three times a day for seven days, vs pre-IOP 14.7±1.39, p<0.000001
  overall reduction in IOP: 18.2%
Healthy male volunteers; day 5 (third day of ingestion)
  IOP of one subject vs days 1 and 2 (FIG. 3): generally lower
Healthy male volunteers; day 9 (seventh day of ingestion)
  IOP of one subject vs days 1 and 2 (FIG. 3): even lower
11β-HSD; 24-hour urine between days six and seven of ingestion vs baseline
  24-hour urinary free cortisol: no significant change
11β-HSD; 24-hour urine between days six and seven of ingestion, pre-F/E 0.497±0.189, p=0.004
  per-F/E (urinary cortisol/cortisone ratio by GC/MS): 1.144±0.382
11β-HSD; urine on ingestion, pre value 0.92±0.23, p=0.0012
  per-THF+allo-THF/THE ratio: 0.7±0.19
[1]
  serum electrolytes: remained stable
  systolic and diastolic blood pressures: remained stable
